Data from patent US20230295234A1, “ANTIMICROBIAL PEPTIDOMIMETICS” (SPEXIS AG, priority 2020, published 2023).
Where two headings read alike, the source gives them in different places. Peptide text beside a SMILES is read from it.

How the values were obtained:
[1] = test system: Escherichia coli ATCC 25922
Summary of the method: (§1)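 Standardized inocula (0.5 McFarland in saline, then diluted in MHII broth to approximately 5×10^5 CFU/mL) were exposed to two-fold dilution series of each peptide in the presence of polysorbate 80 (0.002% final).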

[2] = test system: Escherichia coli MCR-1 Af 45; conditions: Mueller-Hinton broth II, 18-20 hours at 35° C.
Summary of the method: as §1

[3] = test system: Klebsiella pneumoniae SSI3010
Summary of the method: as §1

[4] = test system: human red blood cells (hRBC); assay: Hemolysis of human red blood cells; assay type: cell-based
Summary of the method: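 Percent hemolysis is OD540 of peptide-treated supernatant relative to water-lysed cells. Each peptide was tested at 200 μg/mL against 20% (v/v) washed human erythrocytes. Incubation was 1 h at 37 °C, 300 rpm.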

[5] = Mueller-Hinton broth II, 18-20 hours at 35° C.

Row | SMILES | Escherichia coli ATCC 25922 MIC ([1]; ATCC 25922) [µg/mL] | Escherichia coli MCR-1 Af 45 MIC [2] [µg/mL] | Klebsiella pneumoniae SSI3010 MIC ([3]; SSI3010) [µg/mL] | Hemolysis at 0.2 g/L ([4]; red cells of human, 1 h) [%] | Escherichia coli ATCC 25922 MIC [1, 5] [µg/mL] | Klebsiella pneumoniae SSI3010 MIC [3, 5] [µg/mL] | Hemolysis at 0.2 g/L ([4]; 20% hRBC, 1 h at 37° C.) [%]
1 | CCCC[C@H](NC(=O)[C@H](CCCNC(=N)N)NC(=O)[C@H](CCN)NC(=O)[C@@H]1CSSC(C)(C)[C@H](NC(=O)[C@H](Cc2ccc(O)cc2)NC(=O)[C@@H](NC(=O)[C@@H](NC(=O)[C@@H]2C[C@@H](N)CN2C(=O)[C@@H](N)C(C)C)[C@@H](C)CC)[C@@H](C)CC)C(=O)N[C@@H](CC(N)=O)C(=O)N[C@@H](CCCNC(=N)N)C(=O)N[C@@H](CCN)C(=O)N[C@@H]([C@@H](C)O)C(=O)N[C@H](CCN)C(=O)N[C@@H](CCCCN)C(=O)N1)C(=O)O [Example 136] (HELM PEPTIDE1{V.[N[C@@H]1C[C@@H](C(=O)[*:2])N([*:1])C1].I.I.Y.[Pen].N.R.[Dab].T.[NCC[C@@H](N[*:1])C(=O)[*:2]].K.C.[Dab].R.[Nle]}$PEPTIDE1,PEPTIDE1,6:R3-13:R3$$$V2.0) | 0.125 | 0.0625 | 0.125 | 0 | – | – | –
2 | CCCC[C@H](NC(=O)[C@H](CCCNC(=N)N)NC(=O)[C@H](CCN)NC(=O)[C@@H]1CSSC(C)(C)[C@H](NC(=O)[C@H](Cc2ccc(O)cc2)NC(=O)[C@@H](NC(=O)[C@@H](NC(=O)CN(CCN)C(=O)[C@@H](N)C(C)C)[C@@H](C)CC)[C@@H](C)CC)C(=O)N[C@@H](CC(N)=O)C(=O)N[C@@H](CCCNC(=N)N)C(=O)N[C@@H](CCN)C(=O)N[C@@H]([C@@H](C)O)C(=O)N[C@H](CCN)C(=O)N[C@@H](CCCCN)C(=O)N1)C(=O)O [Example 137] (HELM PEPTIDE1{V.[NCCN(CC(=O)[*:2])[*:1]].I.I.Y.[Pen].N.R.[Dab].T.[NCC[C@@H](N[*:1])C(=O)[*:2]].K.C.[Dab].R.[Nle]}$PEPTIDE1,PEPTIDE1,6:R3-13:R3$$$V2.0) | 0.125 | 0.0625 | 0.25 | 0 | – | – | –
3 | CCCC[C@H](NC(=O)[C@H](CCCNC(=N)N)NC(=O)[C@H](CCN)NC(=O)[C@@H]1CSSC(C)(C)[C@H](NC(=O)[C@H](Cc2ccc(O)cc2)NC(=O)[C@@H](NC(=O)[C@@H](NC(=O)[C@@H]2C[C@@H](N)CN2C(=O)[C@@H](N)C(C)C)[C@@H](C)CC)[C@@H](C)O)C(=O)N[C@@H](CC(N)=O)C(=O)N[C@@H](CCCNC(=N)N)C(=O)N[C@@H](CCN)C(=O)N[C@@H]([C@@H](C)O)C(=O)N[C@H](CCN)C(=O)N[C@@H](CCCCN)C(=O)N1)C(=O)O [Example 138] (HELM PEPTIDE1{V.[N[C@@H]1C[C@@H](C(=O)[*:2])N([*:1])C1].I.T.Y.[Pen].N.R.[Dab].T.[NCC[C@@H](N[*:1])C(=O)[*:2]].K.C.[Dab].R.[Nle]}$PEPTIDE1,PEPTIDE1,6:R3-13:R3$$$V2.0) | 0.125 | 0.0625 | 0.25 | 0 | – | – | –
4 | CC[C@H](C)[C@H](NC(=O)[C@@H](NC(=O)[C@@H]1CCCN1C(=O)[C@@H](N)C(C)C)[C@@H](C)CC)C(=O)N[C@@H](Cc1ccc(O)cc1)C(=O)N[C@H]1CSSC[C@@H](C(=O)N[C@@H](CCN)C(=O)N[C@@H](CCCNC(=N)N)C(=O)N[C@@H](CC2CCCCC2)C(=O)O)NC(=O)[C@H](CCCCN)NC(=O)[C@@H](CCN)NC(=O)[C@H]([C@@H](C)O)NC(=O)[C@H](CCN)NC(=O)[C@H](CCCNC(=N)N)NC(=O)[C@H](CC(N)=O)NC1=O [Example 139] (HELM PEPTIDE1{V.P.I.I.Y.C.N.R.[Dab].T.[NCC[C@@H](N[*:1])C(=O)[*:2]].K.C.[Dab].R.[Cha]}$PEPTIDE1,PEPTIDE1,6:R3-13:R3$$$V2.0) | 0.0625 | 0.0625 | 0.125 | 0 | – | – | –
5 | CC[C@H](C)[C@H](NC(=O)[C@@H](NC(=O)[C@@H]1CCCN1C(=O)[C@@H](N)C(C)C)[C@@H](C)CC)C(=O)N[C@@H](Cc1ccc(O)cc1)C(=O)N[C@@H]1C(=O)N[C@@H](CC(N)=O)C(=O)N[C@@H](CCCNC(=N)N)C(=O)N[C@@H](CCN)C(=O)N[C@@H]([C@@H](C)O)C(=O)N[C@H](CCN)C(=O)N[C@@H](CCCCN)C(=O)N[C@H](C(=O)N[C@@H](CCN)C(=O)N[C@@H](CCCNC(=N)N)C(=O)N[C@@H](Cc2ccc(O)cc2)C(=O)O)CSSC1(C)C [Example 140] (HELM PEPTIDE1{V.P.I.I.Y.[Pen].N.R.[Dab].T.[NCC[C@@H](N[*:1])C(=O)[*:2]].K.C.[Dab].R.Y}$PEPTIDE1,PEPTIDE1,6:R3-13:R3$$$V2.0) | – | 0.0625 | – | – | 0.0625 | 0.125 | 0
6 | CC[C@H](C)[C@H](NC(=O)[C@@H](NC(=O)[C@@H]1CCCN1C(=O)[C@@H](N)C(C)C)[C@@H](C)CC)C(=O)N[C@@H](Cc1ccc(O)cc1)C(=O)N[C@H]1CSSC(C)(C)[C@@H](C(=O)N[C@@H](CCN)C(=O)N[C@@H](CCCNC(=N)N)C(=O)N[C@@H](Cc2ccc(O)cc2)C(=O)O)NC(=O)[C@H](CCCCN)NC(=O)[C@@H](CCN)NC(=O)[C@H]([C@@H](C)O)NC(=O)[C@H](CCN)NC(=O)[C@H](CCCNC(=N)N)NC(=O)[C@H](CC(N)=O)NC1=O [Example 141] (HELM PEPTIDE1{V.P.I.I.Y.C.N.R.[Dab].T.[NCC[C@@H](N[*:1])C(=O)[*:2]].K.[Pen].[Dab].R.Y}$PEPTIDE1,PEPTIDE1,6:R3-13:R3$$$V2.0) | 0.0625 | 0.0625 | 0.25 | 0 | – | – | –
7 | CC[C@H](C)[C@H](NC(=O)[C@@H](NC(=O)[C@@H]1C[C@@H](N)CN1C(=O)[C@@H](N)C(C)C)[C@@H](C)CC)C(=O)N[C@@H](Cc1ccc(O)cc1)C(=O)N[C@H]1CSSC[C@@H](C(=O)N[C@@H](CCN)C(=O)N[C@@H](CCCNC(=N)N)C(=O)N[C@@H](Cc2ccc(O)cc2)C(=O)O)NC(=O)[C@H](CCCCN)NC(=O)[C@@H](CCN)NC(=O)[C@H]([C@@H](C)O)NC(=O)[C@H](CCN)NC(=O)[C@H](CCCNC(=N)N)NC(=O)[C@H](CC(N)=O)NC1=O [Example 142] (HELM PEPTIDE1{V.[N[C@@H]1C[C@@H](C(=O)[*:2])N([*:1])C1].I.I.Y.C.N.R.[Dab].T.[NCC[C@@H](N[*:1])C(=O)[*:2]].K.C.[Dab].R.Y}$PEPTIDE1,PEPTIDE1,6:R3-13:R3$$$V2.0) | 0.125 | 0.0625 | 0.0625 | 0 | – | – | –
8 | CC[C@H](C)[C@H](NC(=O)[C@@H](NC(=O)[C@@H]1C[C@@H](O)CN1C(=O)[C@@H](N)C(C)C)[C@@H](C)CC)C(=O)N[C@@H](Cc1ccc(O)cc1)C(=O)N[C@H]1CSSC[C@@H](C(=O)N[C@@H](CCN)C(=O)N[C@@H](CCCNC(=N)N)C(=O)N[C@@H](Cc2ccc(O)cc2)C(=O)O)NC(=O)[C@H](CCCCN)NC(=O)[C@@H](CCN)NC(=O)[C@H]([C@@H](C)O)NC(=O)[C@H](CCN)NC(=O)[C@H](CCCNC(=N)N)NC(=O)[C@H](CC(N)=O)NC1=O [Example 143] (HELM PEPTIDE1{V.[Hyp].I.I.Y.C.N.R.[Dab].T.[NCC[C@@H](N[*:1])C(=O)[*:2]].K.C.[Dab].R.Y}$PEPTIDE1,PEPTIDE1,6:R3-13:R3$$$V2.0) | 0.0625 | 0.03125 | 0.125 | 0 | – | – | –
9 | CC[C@H](C)[C@H](NC(=O)[C@@H]1CCCN1C(=O)[C@@H](N)C(C)C)C(=O)N[C@H](C(=O)N[C@@H](Cc1ccc(O)cc1)C(=O)N[C@H]1CSSC[C@@H](C(=O)N[C@@H](CCN)C(=O)N[C@@H](CCCNC(=N)N)C(=O)N[C@@H](Cc2ccc(O)cc2)C(=O)O)NC(=O)[C@H](CCCCN)NC(=O)[C@@H](CCN)NC(=O)[C@H]([C@@H](C)O)NC(=O)[C@H](CCN)NC(=O)[C@H](CCCNC(=N)N)NC(=O)[C@H](CC(N)=O)NC1=O)[C@@H](C)O [Example 144] (HELM PEPTIDE1{V.P.I.T.Y.C.N.R.[Dab].T.[NCC[C@@H](N[*:1])C(=O)[*:2]].K.C.[Dab].R.Y}$PEPTIDE1,PEPTIDE1,6:R3-13:R3$$$V2.0) | 0.0625 | 0.25 | 0.125 | 0 | – | – | –
10 | CC[C@H](C)[C@H](NC(=O)[C@@H]1CCCN1C(=O)[C@@H](N)C(C)C)C(=O)N[C@@H](Cc1ccccc1)C(=O)N[C@@H](Cc1ccc(O)cc1)C(=O)N[C@H]1CSSC[C@@H](C(=O)N[C@@H](CCN)C(=O)N[C@@H](CCCNC(=N)N)C(=O)N[C@@H](Cc2ccc(O)cc2)C(=O)O)NC(=O)[C@H](CCCCN)NC(=O)[C@@H](CCN)NC(=O)[C@H]([C@@H](C)O)NC(=O)[C@H](CCN)NC(=O)[C@H](CCCNC(=N)N)NC(=O)[C@H](CC(N)=O)NC1=O [Example 145] (HELM PEPTIDE1{V.P.I.F.Y.C.N.R.[Dab].T.[NCC[C@@H](N[*:1])C(=O)[*:2]].K.C.[Dab].R.Y}$PEPTIDE1,PEPTIDE1,6:R3-13:R3$$$V2.0) | 0.0625 | 0.0625 | 0.125 | 0 | – | – | –
